Test results: US20190290673A1, “COMPOSITIONS AND METHODS FOR THE TREATMENT OF HBV INFECTION” (priority 2016, published 2019)

Assays:
HBV = experiment: Efficacy for treatment of HBV infection in transgenic HBV mice (liver HBV DNA, serum HBeAg/HBsAg); format: in vivo; conditions: per os, qd x 14 d, dosage 'high'; for liver HBV DNA levels: Southern blot hybridization and semi-quantitative PCR, compared to vehicle and ADV; for serum levels of HBeAg / serum levels of HBsAg: relative to vehicle values
Description: (§1) The goal of this study was to evaluate the efficacy of exemplary compounds for the treatment of HBV infection in transgenic mice. Homozygous […] transgenic HBV mice (21.6±2.8 g) originally obtained from the laboratory of Dr. Frank Chisari (Scripps Research Institute, LaJolla, Calif.) and derived from founder 1.3.32 were used in this study. Female and male HBV transgenic mice were block-randomized to the treatment groups (Table 1). Compounds of Formula (Ie) and Formula (If) were administered at 0.1 mL/30-gram mouse by oral gavage. Adefovir dipivoxil (ADV) was prepared as a solution of 2 mg/mL in 0.025 M sodium citrate, wherein 0.1 mL was administered by oral gavage (per os, p.o.) per 30 g mouse for a dosage of […].
(§2) Treatment was initiated at day 1. After the last treatment on day 14, necropsy was performed to obtain tissues to assay liver HBV DNA and sera for HBV antigens HBeAg and HBsAg. Weights were obtained on days −1, 1 (day of treatment initiation), 3, 7, and 14. Data were analyzed by one-way analysis of variance. Two animals died due to oral gavage treatment at day 7, one in group 1 and another in group 3. FIGS. 2A-2B show the effect of Formula (Ie) and Formula (If) on liver HBV DNA levels using Southern blot hybridization (FIG. 2A) and semi-quantitative PCR (FIG. 2B) as compared to vehicle and ADV.

[1] = Whole body weight change in transgenic HBV mice; format: in vivo; conditions: per os, qd x 14 d, dosage 'high'; relative to vehicle values
Description: as §1, §2

| Compound | liver HBV DNA levels (HBV) | serum levels of HBeAg (HBV) | serum levels of HBsAg (HBV) | whole body weight change [1] |
| --- | --- | --- | --- | --- |
| CO[C@H]1C(O[P@](=O)(OC[C@H]2O[C@@H](n3cnc4c(N)ncnc43)CC2O)SCOC(=O)OC(C)C)[C@@H](CO)O[C@H]1n1ccc(=O)[nH]c1=O (some centres unmarked) [Formula (Ie)] | lowered HBV DNA levels in the liver | Neither Formula (Ie) or Formula (If) had an effect | Neither Formula (Ie) or Formula (If) had an effect | Neither Formula (Ie) or Formula (If) had an effect |
| CO[C@H]1C(O[P@@](=O)(OC[C@H]2O[C@@H](n3cnc4c(N)ncnc43)CC2O)SCOC(=O)OC(C)C)[C@@H](CO)O[C@H]1n1ccc(=O)[nH]c1=O (some centres unmarked) [Formula (If)] | lowered HBV DNA levels in the liver | Neither Formula (Ie) or Formula (If) had an effect | Neither Formula (Ie) or Formula (If) had an effect | Neither Formula (Ie) or Formula (If) had an effect |
